The text below walks through data of patent US10696651B2, “Heterocyclic compound” (Takeda Pharmaceutical Company Limited, priority 2016, dated 2020).

The target in this experiment is T1, human GCN2 full-length protein (Homo sapiens, UniProt Q9P2K8).
T1 construct: purchased Carna Biosciences, Inc
The experiment in a line: GCN2 enzyme inhibition assay (LanthaScreen TR-FRET). The format is biochemical. The settings on record: GCN2 enzyme inhibitory activity at compound concentration of 3 μM, read-out: inhibitory rate. The method, then: GCN2 enzyme was preserved at -70° C. and used. The GCN2 enzyme inhibitory activity of the test compound was measured by the LanthaScreenTR-FRET (Time Resolved Fluorescence Resonance Energy Transfer) method (manufactured by ThermoFisher). […] Then, GCN2 enzyme solution diluted with the assay buffer was added by 2 μL to each well. The enzyme solution was not added to a part of the wells to give a control group. After incubation at room temperature for 1 hr, 570 μM ATP solution containing 390 nM […] physiological protein substrate (ThermoFisher) was added by 2 μL. After reaction at room temperature for 1 hr, TR-FRET Dilution Buffer (ThermoFisher) containing 4 nM Terbium-labeled anti-elF2alpha [[…]] antibody (ThermoFisher) dissolved therein was added by 2 μL to each well. After standing at room temperature for 1 hr, time decomposition fluorescence measurement was performed on platereader Envision (manufactured by PerkinElmer).
A general note: TR-FRET usually uses a lanthanide donor and a delayed reading to cut background.

Counter-ions that a name gives are not always drawn. Like-named read-outs stand apart in the source and are kept apart here.

T1 sequence (Q9P2K8 whole entry): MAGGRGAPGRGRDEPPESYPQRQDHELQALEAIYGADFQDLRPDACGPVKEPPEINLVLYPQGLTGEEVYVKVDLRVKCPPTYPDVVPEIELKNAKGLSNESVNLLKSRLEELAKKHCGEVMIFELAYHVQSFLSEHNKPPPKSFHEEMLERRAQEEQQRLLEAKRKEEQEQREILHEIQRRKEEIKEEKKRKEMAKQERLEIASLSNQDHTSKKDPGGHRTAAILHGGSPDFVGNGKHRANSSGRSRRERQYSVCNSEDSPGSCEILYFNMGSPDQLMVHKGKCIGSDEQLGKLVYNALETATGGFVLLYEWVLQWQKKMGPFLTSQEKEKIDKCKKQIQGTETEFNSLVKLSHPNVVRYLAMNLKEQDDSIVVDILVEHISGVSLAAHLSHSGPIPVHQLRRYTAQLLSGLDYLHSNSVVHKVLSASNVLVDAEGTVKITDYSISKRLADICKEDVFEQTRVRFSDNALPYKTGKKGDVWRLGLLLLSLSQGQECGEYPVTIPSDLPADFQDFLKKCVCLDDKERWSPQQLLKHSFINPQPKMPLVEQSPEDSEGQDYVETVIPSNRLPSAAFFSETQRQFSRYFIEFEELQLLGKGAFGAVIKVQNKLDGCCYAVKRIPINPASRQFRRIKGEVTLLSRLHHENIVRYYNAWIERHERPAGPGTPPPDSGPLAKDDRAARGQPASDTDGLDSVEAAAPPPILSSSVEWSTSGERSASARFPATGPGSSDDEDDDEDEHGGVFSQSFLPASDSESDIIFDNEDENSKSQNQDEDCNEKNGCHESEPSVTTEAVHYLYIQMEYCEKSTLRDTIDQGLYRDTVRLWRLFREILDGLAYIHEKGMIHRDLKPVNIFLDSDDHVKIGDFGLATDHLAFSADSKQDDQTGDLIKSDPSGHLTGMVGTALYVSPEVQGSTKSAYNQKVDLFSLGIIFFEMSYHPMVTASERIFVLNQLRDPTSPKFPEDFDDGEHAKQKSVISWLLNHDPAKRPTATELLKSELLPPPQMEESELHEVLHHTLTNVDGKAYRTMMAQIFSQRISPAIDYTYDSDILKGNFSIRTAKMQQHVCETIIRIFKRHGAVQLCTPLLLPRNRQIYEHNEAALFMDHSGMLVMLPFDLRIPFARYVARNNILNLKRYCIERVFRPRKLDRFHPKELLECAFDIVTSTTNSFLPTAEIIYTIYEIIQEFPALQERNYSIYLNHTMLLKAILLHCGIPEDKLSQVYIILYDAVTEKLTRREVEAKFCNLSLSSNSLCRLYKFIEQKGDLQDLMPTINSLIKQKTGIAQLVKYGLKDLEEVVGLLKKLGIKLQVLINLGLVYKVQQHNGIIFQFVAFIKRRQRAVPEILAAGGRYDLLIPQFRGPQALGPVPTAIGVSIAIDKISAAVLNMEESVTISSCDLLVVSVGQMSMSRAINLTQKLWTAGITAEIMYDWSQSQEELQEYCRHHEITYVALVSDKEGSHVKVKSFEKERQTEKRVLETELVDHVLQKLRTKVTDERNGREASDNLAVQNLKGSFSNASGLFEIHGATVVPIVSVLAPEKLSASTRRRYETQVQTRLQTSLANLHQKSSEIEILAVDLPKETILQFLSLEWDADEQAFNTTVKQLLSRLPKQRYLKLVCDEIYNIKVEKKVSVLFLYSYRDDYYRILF

For the compound `Cc1ncc(Cl)cc1S(=O)(=O)Nc1ccc(F)c(C#Cc2cnc(N)nc2)c1F` [Example 3, N-(3-((2-aminopyrimidin-5-yl)ethynyl)-2,4-difluorophenyl)-5-chloro-2-methylpyridine-3-sulfonamide], the inhibition at 3 µM (Table 3-1) is 99%.

On to `Nc1ncc(C#Cc2c(F)ccc(NS(=O)(=O)c3cc(Cl)ccc3C(F)(F)F)c2F)cn1` [Example 6, N-(3-((2-aminopyrimidin-5-yl)ethynyl)-2,4-difluorophenyl)-5-chloro-2-(trifluoromethyl)benzenesulfonamide], for which the inhibition at 3 µM (Table 3-1) was 99%. As to `Nc1ncc(C#Cc2c(F)ccc(NS(=O)(=O)c3cc(Cl)cc4c3OCC4)c2F)cn1` [Example 9, N-(3-((2-aminopyrimidin-5-yl)ethynyl)-2,4-difluorophenyl)-5-chloro-2,3-dihydro-1-benzofuran-7-sulfonamide], where the note is “Table 3-1”, the inhibition at 3 µM came out at 99%.

Regarding `O=S(=O)(Nc1ccc(F)c(C#Cc2cnc(NC3CC3)nc2)c1F)c1cc(Cl)ccc1Cl` [Example 11, 2,5-dichloro-N-(3-((2-(cyclopropylamino)pyrimidin-5-yl)ethynyl)-2,4-difluorophenyl)benzenesulfonamide TFA Salt], the inhibition at 3 µM (Table 3-1) is 99%. Still for that read-out and setting: the same measure for `Nc1ncc(C#Cc2c(F)ccc(NS(=O)(=O)c3cc(Cl)ccc3OC(F)(F)F)c2F)cn1` [Example 12, N-(3-((2-aminopyrimidin-5-yl)ethynyl)-2,4-difluorophenyl)-5-chloro-2-(trifluoromethoxy)benzenesulfonamide]: 99%; for `O=S(=O)(Nc1ccc(F)c(C#Cc2cnc(NC3CCOC3)nc2)c1F)c1cc(Cl)ccc1Cl` (stereo not drawn) [Example 16, 2,5-dichloro-N-(2,4-difluoro-3-((2-(tetrahydrofuran-3-ylamino)pyrimidin-5-yl)ethynyl)phenyl)benzenesulfonamide TFA Salt]: 100%; for `Nc1ncc(C#Cc2c(F)ccc(NS(=O)(=O)c3cc(Cl)ccc3OC(F)F)c2F)cn1` [Example 21, N-(3-((2-aminopyrimidin-5-yl)ethynyl)-2,4-difluorophenyl)-5-chloro-2-(difluoromethoxy)benzenesulfonamide]: 99%. The same measure, in the same setting: the figure for `C[C@H](CO)Nc1ncc(C#Cc2c(F)ccc(NS(=O)(=O)c3cc(Cl)ccc3Cl)c2F)cn1` [Example 22, 2,5-dichloro-N-(2,4-difluoro-3-((2-(((2R)-1-hydroxypropan-2-yl)amino)pyrimidin-5-yl)ethynyl)phenyl)benzenesulfonamide TFA Salt] is 99%. On the same count and under the same terms, the same measure for `Nc1ncc(C#Cc2c(F)ccc(NS(=O)(=O)c3cc(Cl)cc(Cl)c3)c2F)cn1` [Example 27, N-(3-((2-aminopyrimidin-5-yl)ethynyl)-2,4-difluorophenyl)-3,5-dichlorobenzenesulfonamide]: 95%; for `O=S(=O)(Nc1ccc(F)c(C#Cc2cnc(NCCCO)nc2)c1F)c1cc(Cl)ccc1Cl` [Example 28, 2,5-dichloro-N-(2,4-difluoro-3-((2-((3-hydroxypropyl)amino)pyrimidin-5-yl)ethynyl)phenyl)benzenesulfonamide TFA Salt]: 99%; for `N#Cc1ccc(Cl)cc1S(=O)(=O)Nc1ccc(F)c(C#Cc2cnc(N)nc2)c1F` [Example 29, N-(3-((2-aminopyrimidin-5-yl)ethynyl)-2,4-difluorophenyl)-5-chloro-2-cyanobenzenesulfonamide]: 99%. `CCNc1ncc(C#Cc2c(F)ccc(NS(=O)(=O)c3cc(Cl)ccc3Cl)c2F)cn1` [Example 30, 2,5-dichloro-N-(3-((2-(ethylamino)pyrimidin-5-yl)ethynyl)-2,4-difluorophenyl)benzenesulfonamide TFA Salt]: the inhibition at 3 µM (Table 3-1) is 98%.

As for `O=S(=O)(Nc1ccc(F)c(C#Cc2cnc(N[C@H]3CC[C@H](O)CC3)nc2)c1F)c1cc(Cl)ccc1Cl` [Example 32, 2,5-dichloro-N-(2,4-difluoro-3-((2-((trans-4-hydroxycyclohexyl)amino)pyrimidin-5-yl)ethynyl)phenyl)benzenesulfonamide TFA Salt], for the setting “Table 3-1”, the inhibition at 3 µM worked out at 99%. Same read-out and setting: the same measure for `Nc1ncc(C#Cc2c(F)ccc(NS(=O)(=O)c3cc(Cl)ccc3Cl)c2F)c(N)n1` [Example 34, 2,5-dichloro-N-(3-((2,4-diaminopyrimidin-5-yl)ethynyl)-2,4-difluorophenyl)benzenesulfonamide]: 98%; for `Nc1ncc(C#Cc2c(F)ccc(NS(=O)(=O)c3cc(C(F)(F)F)ccc3Cl)c2F)cn1` [Example 35, N-(3-((2-aminopyrimidin-5-yl)ethynyl)-2,4-difluorophenyl)-2-chloro-5-(trifluoromethyl)benzenesulfonamide]: 95%; for `O=S(=O)(Nc1ccc(F)c(C#Cc2cnc(NCCO)nc2)c1F)c1cc(Cl)ccc1Cl` [Example 36, 2,5-dichloro-N-(2,4-difluoro-3-((2-((2-hydroxyethyl)amino)pyrimidin-5-yl)ethynyl)phenyl)benzenesulfonamide TFA Salt]: 99%.

In the case of `Cc1ncc(Cl)cc1S(=O)(=O)Nc1ccc(F)c(C#Cc2cnc(NC(C)C)nc2)c1F` [Example 105, 5-chloro-N-(2,4-difluoro-3-((2-(isopropylamino)pyrimidin-5-yl)ethynyl)phenyl)-2-methylpyridine-3-sulfonamide], the inhibition at 3 µM (Table 3-1) stood at 100%. `COc1ncc(Cl)cc1S(=O)(=O)Nc1ccc(F)c(C#Cc2cnc(NC(C)C)nc2)c1F` [Example 106, 5-chloro-N-(2,4-difluoro-3-((2-(isopropylamino)pyrimidin-5-yl)ethynyl)phenyl)-2-methoxypyridine-3-sulfonamide]: the inhibition at 3 µM (Table 3-1) came to 99%. Turning to `COc1ncc(Cl)cc1S(=O)(=O)Nc1ccc(F)c(C#Cc2cnc(NCC(C)(C)O)nc2)c1F` [Example 107, 5-chloro-N-(2,4-difluoro-3-((2-((2-hydroxy-2-methylpropyl)amino)pyrimidin-5-yl)ethynyl)phenyl)-2-methoxypyridine-3-sulfonamide], the inhibition at 3 µM (Table 3-1) was 99%. Regarding `COc1ncc(Cl)cc1S(=O)(=O)Nc1ccc(F)c(C#Cc2cnc(NC(C)(C)CO)nc2)c1F` [Example 108, 5-chloro-N-(2,4-difluoro-3-((2-((1-hydroxy-2-methylpropan-2-yl)amino)pyrimidin-5-yl)ethynyl)phenyl)-2-methoxypyridine-3-sulfonamide], the inhibition at 3 µM (Table 3-1) stood at 99%. As to `COc1ncc(Cl)cc1S(=O)(=O)Nc1ccc(F)c(C#Cc2cnc(N)nn2)c1F` [Example 109, N-(3-((3-amino-1,2,4-triazin-6-yl)ethynyl)-2,4-difluorophenyl)-5-chloro-2-methoxypyridine-3-sulfonamide], under “Table 3-1”, the inhibition at 3 µM came out at 99%. Still for that read-out and setting: the figure for `COc1ncc(Cl)cc1S(=O)(=O)Nc1ccc(F)c(C#Cc2cnc(N)c(C)n2)c1F` [Example 110, N-(3-((5-amino-6-methylpyrazin-2-yl)ethynyl)-2,4-difluorophenyl)-5-chloro-2-methoxypyridine-3-sulfonamide] is 100%. As for `Cc1cc(C)cc(S(=O)(=O)Nc2ccc(F)c(C#Cc3cnc4[nH]ncc4c3)c2F)c1` [Example 111, N-(2,4-difluoro-3-(1H-pyrazolo[3,4-b]pyridin-5-ylethynyl)phenyl)-3,5-dimethylbenzenesulfonamide TFA Salt], the inhibition at 3 µM (Table 3-1) is 97%. The same measure, in the same setting: the same measure for `Cc1ccc(C)c(S(=O)(=O)Nc2ccc(F)c(C#Cc3cnc4[nH]ncc4c3)c2F)c1` [Example 112, N-(2,4-difluoro-3-(1H-pyrazolo[3,4-b]pyridin-5-ylethynyl)phenyl)-2,5-dimethylbenzenesulfonamide TFA Salt]: 99%; for `COc1ncc(Cl)cc1S(=O)(=O)Nc1cccc(C#Cc2cnc(N)nc2)c1F` [Example 123, N-(3-((2-aminopyrimidin-5-yl)ethynyl)-2-fluorophenyl)-5-chloro-2-methoxypyridine-3-sulfonamide]: 100%; for `COc1ncc(Cl)cc1S(=O)(=O)Nc1ccc(Cl)c(C#Cc2cnc(N)nc2)c1F` [Example 124, N-(3-((2-aminopyrimidin-5-yl)ethynyl)-4-chloro-2-fluorophenyl)-5-chloro-2-methoxypyridine-3-sulfonamide]: 100%. Still for that read-out and setting: the same measure for `COc1ncc(Cl)cc1S(=O)(=O)Nc1ccc(F)c(C#Cc2cnc(N)nc2)c1Cl` [Example 125, N-(3-((2-aminopyrimidin-5-yl)ethynyl)-2-chloro-4-fluorophenyl)-5-chloro-2-methoxypyridine-3-sulfonamide]: 100%; for `COc1ncc(Cl)cc1S(=O)(=O)Nc1cccc(C#Cc2cnc(N)nc2)c1Cl` [Example 126, N-(3-((2-aminopyrimidin-5-yl)ethynyl)-2-chlorophenyl)-5-chloro-2-methoxypyridine-3-sulfonamide]: 100%. As for `COc1c(CO)cc(Cl)cc1S(=O)(=O)Nc1ccc(F)c(C#Cc2cnc(N)c(C)n2)c1F` [Example 131, N-(3-((5-amino-6-methylpyrazin-2-yl)ethynyl)-2,4-difluorophenyl)-5-chloro-3-(hydroxymethyl)-2-methoxybenzenesulfonamide], under “Table 3-2”, the inhibition at 3 µM turned out to be 99%. For `Nc1ncc(C#Cc2c(F)ccc(NS(=O)(=O)c3cc(Cl)cnc3C(F)(F)F)c2F)cn1` [Example 136, N-(3-((2-aminopyrimidin-5-yl)ethynyl)-2,4-difluorophenyl)-5-chloro-2-(trifluoromethyl)pyridine-3-sulfonamide], the inhibition at 3 µM (Table 3-2) worked out at 99%.
